This note sets out measurements from ChEMBL document CHEMBL4118086, “Potential of PI3Kβ Inhibitors in the Treatment of Cancer and Other Diseases” (ACS Med Chem Lett, 2017).

Assay [1] deals with Phosphatidylinositol 4,5-bisphosphate 3-kinase catalytic subunit gamma isoform (Homo sapiens, UniProt P48736). As to the kind of experiment: Binding affinity to wild-type human PIK3Cgamma (S144 to A1102 residues) expressed in mammalian expression system by KINOMEScan assay.
Assay [2] addresses Serine/threonine-protein kinase mTOR (Homo sapiens, UniProt P42345). As to the kind of experiment: Binding affinity to wild-type human MTOR (L1382 to W2549 residues) expressed in mammalian expression system by KINOMEScan assay.
The target in assay [3] is T1, Phosphatidylinositol 4,5-bisphosphate 3-kinase catalytic subunit beta isoform (Homo sapiens, UniProt P42338). As to the kind of experiment: Inhibition of PI3Kbeta in human PC3 cells assessed as reduction in AKT phosphorylation at S473 residue measured after 60 mins by ELISA. It counts as cell-based.
Assay [4] addresses T1, Phosphatidylinositol 4,5-bisphosphate 3-kinase catalytic subunit beta isoform. As to the kind of experiment: Inhibition of PI3Kbeta in human PC3 cells assessed as reduction in AKT phosphorylation at Thr308 residue measured after 60 mins by ELISA. It is filed as cell-based.
Assay [5] deals with Phosphatidylinositol 4,5-bisphosphate 3-kinase catalytic subunit alpha isoform (Homo sapiens, UniProt P42336). As to the kind of experiment: Binding affinity to wild-type human PIK3Calpha (R108 to N1068 residues) expressed in mammalian expression system by KINOMEScan assay.
The target of assay [6] is T1, Phosphatidylinositol 4,5-bisphosphate 3-kinase catalytic subunit beta isoform. The assay can be described thus: Binding affinity to wild-type human PIK3Cbeta (P118 to S1070 residues) expressed in mammalian expression system by KINOMEScan assay.
Assay [7] has as its target T2, Phosphatidylinositol 4,5-bisphosphate 3-kinase catalytic subunit delta isoform (Homo sapiens, UniProt O00329).
T2 sequence (O00329 whole entry): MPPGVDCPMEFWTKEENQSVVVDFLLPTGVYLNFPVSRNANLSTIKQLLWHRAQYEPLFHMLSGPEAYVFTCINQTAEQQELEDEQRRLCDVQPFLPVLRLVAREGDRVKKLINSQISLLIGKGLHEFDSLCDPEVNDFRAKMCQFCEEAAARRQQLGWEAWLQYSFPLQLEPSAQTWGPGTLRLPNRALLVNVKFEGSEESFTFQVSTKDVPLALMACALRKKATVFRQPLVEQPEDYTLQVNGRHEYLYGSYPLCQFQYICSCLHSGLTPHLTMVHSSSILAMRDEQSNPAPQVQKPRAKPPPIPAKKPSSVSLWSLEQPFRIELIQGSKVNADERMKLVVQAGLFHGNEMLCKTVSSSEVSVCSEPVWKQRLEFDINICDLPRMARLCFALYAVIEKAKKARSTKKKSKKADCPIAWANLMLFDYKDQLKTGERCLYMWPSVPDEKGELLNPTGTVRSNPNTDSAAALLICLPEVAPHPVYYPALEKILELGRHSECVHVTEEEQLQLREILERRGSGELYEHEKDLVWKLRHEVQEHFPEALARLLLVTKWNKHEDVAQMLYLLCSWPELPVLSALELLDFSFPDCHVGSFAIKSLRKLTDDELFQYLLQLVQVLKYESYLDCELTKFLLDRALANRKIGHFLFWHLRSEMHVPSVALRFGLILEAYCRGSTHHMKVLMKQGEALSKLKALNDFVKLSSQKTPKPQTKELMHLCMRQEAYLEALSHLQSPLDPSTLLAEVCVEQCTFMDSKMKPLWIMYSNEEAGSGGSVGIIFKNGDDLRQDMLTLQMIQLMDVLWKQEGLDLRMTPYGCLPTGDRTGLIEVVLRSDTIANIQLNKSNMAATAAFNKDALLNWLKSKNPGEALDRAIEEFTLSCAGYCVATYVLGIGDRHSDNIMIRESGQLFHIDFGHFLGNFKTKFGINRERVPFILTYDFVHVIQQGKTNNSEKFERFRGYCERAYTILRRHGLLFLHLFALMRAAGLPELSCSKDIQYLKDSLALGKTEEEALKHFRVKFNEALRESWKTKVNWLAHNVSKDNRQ
The assay can be described thus: Binding affinity to wild-type human PIK3Cdelta (R108 to Q1044 residues) expressed in mammalian expression system by KINOMEScan assay.

Molecules are shown by their SMILES.

Phosphatidylinositol 4,5-bisphosphate 3-kinase catalytic subunit alpha isoform, sequence (P42336 whole entry, the tested form may be a part, canonical isoform): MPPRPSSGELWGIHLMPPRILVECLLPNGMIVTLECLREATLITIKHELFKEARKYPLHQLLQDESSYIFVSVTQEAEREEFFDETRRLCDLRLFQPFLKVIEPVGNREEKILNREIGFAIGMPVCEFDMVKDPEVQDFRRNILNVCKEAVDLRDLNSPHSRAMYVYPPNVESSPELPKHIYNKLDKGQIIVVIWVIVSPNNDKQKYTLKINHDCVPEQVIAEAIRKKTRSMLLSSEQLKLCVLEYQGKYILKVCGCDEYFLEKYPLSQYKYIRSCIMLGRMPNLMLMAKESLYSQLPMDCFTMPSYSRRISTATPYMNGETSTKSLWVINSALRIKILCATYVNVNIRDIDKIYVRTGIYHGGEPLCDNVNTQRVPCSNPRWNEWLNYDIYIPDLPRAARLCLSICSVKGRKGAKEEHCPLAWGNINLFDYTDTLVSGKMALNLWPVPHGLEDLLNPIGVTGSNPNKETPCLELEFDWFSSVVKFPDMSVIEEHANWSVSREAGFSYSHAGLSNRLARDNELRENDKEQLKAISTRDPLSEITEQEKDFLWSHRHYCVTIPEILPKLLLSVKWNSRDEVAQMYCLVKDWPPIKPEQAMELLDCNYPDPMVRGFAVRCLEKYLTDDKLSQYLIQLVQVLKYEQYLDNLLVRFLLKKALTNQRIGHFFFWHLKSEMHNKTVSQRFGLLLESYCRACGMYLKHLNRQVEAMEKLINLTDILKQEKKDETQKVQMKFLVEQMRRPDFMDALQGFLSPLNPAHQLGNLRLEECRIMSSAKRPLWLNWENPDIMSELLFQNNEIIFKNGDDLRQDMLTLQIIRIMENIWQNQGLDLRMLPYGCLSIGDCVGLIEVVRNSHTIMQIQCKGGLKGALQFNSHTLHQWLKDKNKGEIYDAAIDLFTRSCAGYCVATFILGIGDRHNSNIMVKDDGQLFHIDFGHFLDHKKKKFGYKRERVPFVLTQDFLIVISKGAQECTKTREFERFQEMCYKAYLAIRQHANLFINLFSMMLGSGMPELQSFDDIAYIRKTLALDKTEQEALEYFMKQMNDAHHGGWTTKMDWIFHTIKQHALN
T1 sequence (P42338 whole entry, canonical isoform): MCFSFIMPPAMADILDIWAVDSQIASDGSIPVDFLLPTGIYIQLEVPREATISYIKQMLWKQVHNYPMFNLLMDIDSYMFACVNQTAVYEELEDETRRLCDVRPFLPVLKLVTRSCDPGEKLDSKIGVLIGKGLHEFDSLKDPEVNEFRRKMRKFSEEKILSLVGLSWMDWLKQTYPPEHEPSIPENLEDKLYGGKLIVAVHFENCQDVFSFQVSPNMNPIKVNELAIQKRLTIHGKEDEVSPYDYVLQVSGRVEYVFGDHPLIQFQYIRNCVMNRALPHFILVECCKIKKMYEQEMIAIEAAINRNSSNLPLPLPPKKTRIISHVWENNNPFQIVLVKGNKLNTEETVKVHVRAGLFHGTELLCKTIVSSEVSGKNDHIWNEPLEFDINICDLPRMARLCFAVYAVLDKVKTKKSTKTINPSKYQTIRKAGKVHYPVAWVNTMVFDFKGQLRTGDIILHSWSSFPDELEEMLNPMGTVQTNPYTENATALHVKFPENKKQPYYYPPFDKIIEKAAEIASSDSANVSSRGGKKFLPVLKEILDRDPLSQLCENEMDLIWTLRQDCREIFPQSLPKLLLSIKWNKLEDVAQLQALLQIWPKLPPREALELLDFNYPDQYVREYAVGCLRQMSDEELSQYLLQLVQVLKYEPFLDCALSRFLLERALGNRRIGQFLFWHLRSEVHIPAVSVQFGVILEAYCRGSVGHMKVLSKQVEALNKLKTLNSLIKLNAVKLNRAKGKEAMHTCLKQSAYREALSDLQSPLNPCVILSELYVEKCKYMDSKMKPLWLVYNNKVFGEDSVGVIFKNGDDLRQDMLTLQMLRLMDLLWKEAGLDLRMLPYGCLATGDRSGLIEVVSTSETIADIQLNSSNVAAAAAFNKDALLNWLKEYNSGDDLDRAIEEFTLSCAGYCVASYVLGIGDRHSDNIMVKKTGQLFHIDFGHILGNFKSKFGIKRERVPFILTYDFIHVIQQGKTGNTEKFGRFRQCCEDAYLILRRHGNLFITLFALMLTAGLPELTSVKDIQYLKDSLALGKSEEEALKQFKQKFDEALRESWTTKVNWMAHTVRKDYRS
Phosphatidylinositol 4,5-bisphosphate 3-kinase catalytic subunit gamma isoform, sequence (P48736 whole entry, the tested form may be a part, canonical isoform): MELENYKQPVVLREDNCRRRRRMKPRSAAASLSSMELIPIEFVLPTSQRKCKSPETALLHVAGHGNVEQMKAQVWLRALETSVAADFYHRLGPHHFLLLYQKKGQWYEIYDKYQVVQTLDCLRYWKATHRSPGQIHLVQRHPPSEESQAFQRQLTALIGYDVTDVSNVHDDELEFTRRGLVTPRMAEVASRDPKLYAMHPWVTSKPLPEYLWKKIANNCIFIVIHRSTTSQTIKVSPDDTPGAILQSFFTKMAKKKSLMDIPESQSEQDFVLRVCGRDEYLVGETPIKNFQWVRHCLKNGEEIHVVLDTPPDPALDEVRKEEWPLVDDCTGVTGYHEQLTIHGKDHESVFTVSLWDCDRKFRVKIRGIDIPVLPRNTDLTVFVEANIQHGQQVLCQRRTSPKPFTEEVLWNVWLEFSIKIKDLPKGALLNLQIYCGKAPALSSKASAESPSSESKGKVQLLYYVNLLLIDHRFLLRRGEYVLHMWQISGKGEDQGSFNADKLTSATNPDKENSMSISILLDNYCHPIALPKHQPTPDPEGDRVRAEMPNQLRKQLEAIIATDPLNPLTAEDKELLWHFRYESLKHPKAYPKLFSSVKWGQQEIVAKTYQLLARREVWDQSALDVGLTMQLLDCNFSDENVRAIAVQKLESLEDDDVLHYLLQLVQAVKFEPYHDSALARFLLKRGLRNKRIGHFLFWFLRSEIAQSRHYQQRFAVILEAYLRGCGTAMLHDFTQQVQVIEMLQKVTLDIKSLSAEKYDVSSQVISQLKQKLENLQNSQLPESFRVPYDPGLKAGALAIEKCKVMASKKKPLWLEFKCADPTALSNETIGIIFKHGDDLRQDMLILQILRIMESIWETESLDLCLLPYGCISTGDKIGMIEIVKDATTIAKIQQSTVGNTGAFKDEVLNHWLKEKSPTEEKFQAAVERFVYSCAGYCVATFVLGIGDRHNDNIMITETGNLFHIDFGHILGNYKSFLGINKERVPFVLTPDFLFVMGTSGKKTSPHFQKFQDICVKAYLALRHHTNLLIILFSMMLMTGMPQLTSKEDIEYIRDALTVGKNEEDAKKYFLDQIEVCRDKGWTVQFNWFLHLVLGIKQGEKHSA

`CN(C)C(=O)c1cc([C@@H]2CCCN2c2cc(F)cc(F)c2)c2nc(N3CCOCC3)cnc2c1`: the Kd in assay [1] and in assay [2] was above 30200 nM in each case. The half-inhibitory concentration (IC50) in assay [3] and in assay [4] was above 513 nM each time.
On to `Cc1c(F)cccc1NCc1cc(C(=O)NCCN(C)C)cc2ncc(N3CCOCC3)nc12`, for which the Kd (as a rule, the equilibrium constant for the complex coming apart) in assay [5] is 1910 nM; in assay [6] it was 0.2 nM; in assay [7] it was 324 nM; in assay [1], 6610 nM; in assay [2] it was 17800 nM. In addition, the IC50 in assay [3] and in assay [4] was 9 nM in each case.
Turning to `C[C@@H](Nc1cccc(F)c1)c1cc(C(=O)NCCO)cc2ncc(N3CCOCC3)nc12`, the Kd turned out to be 1100 nM in assay [5]; 3 nM in assay [6]; 324 nM in assay [7]; 3410 nM in assay [1]; 17100 nM in assay [2]. Also, the IC50 (in general, the midpoint of a concentration-inhibition curve) in assay [3] worked out at 49 nM; in assay [4], 44 nM.
Take `C[C@@H](Nc1cc(F)cc(F)c1)c1cc(C(=O)NCCN(C)C)cc2ncc(N3CCOCC3)nc12`: the IC50 in assay [3] and in assay [4] was 2 nM throughout.
Regarding `C[C@H](Nc1cc(F)cc(F)c1)c1cc(C(=O)NCCN(C)C)cc2ncc(N3CCOCC3)nc12`, the Kd in assay [2] was above 30200 nM. Further, the IC50 in assay [3] was 331 nM; in assay [4], 148 nM.
The matching figures for `C[C@H](Nc1cccc(F)c1)c1cc(C(=O)NCCO)cc2ncc(N3CCOCC3)nc12`: above 30200 nM, above 513 nM and above 513 nM.
On to `CN(C)C(=O)c1cc([C@H]2CCCN2c2cc(F)cc(F)c2)c2nc(N3CCOCC3)cnc2c1`, for which the Kd in assay [5] came to 34 nM; in assay [6], 0.3 nM; in assay [7] it was 15 nM; in assay [1], 313 nM; in assay [2] it was 28200 nM. Besides, the IC50 came to 2 nM in assay [3] and 3 nM in assay [4].
As for `C[C@@H]1CN(C(=O)c2cc(C3CCCN3c3cc(F)cc(F)c3)c3nc(N4CCOCC4)cnc3c2)C[C@H](C)N1` (mixture of isomers), the Kd in assay [5] was 14 nM; in assay [6] it was 0.2 nM; in assay [7], 7 nM; in assay [1], 214 nM; in assay [2] it was above 30200 nM. Further, the IC50 in assay [3] came out at 7 nM; in assay [4], 5 nM.
For the compound `CC(Nc1cc(F)cc(F)c1)c1cc(C(=O)NCCN(C)C)cc2ncc(N3CCOCC3)nc12` (racemic), in assay [2], the dissociation constant Kd is above 30200 nM. Also, the IC50 was 6 nM in assay [3] and 3 nM in assay [4].
Take `CNCCNC(=O)c1cc(C(C)Nc2cccc(F)c2)c2nc(N3CCOCC3)cnc2c1` (racemic): the IC50 turned out to be 7 nM in assay [3] and 6 nM in assay [4].
`CN(C)C(=O)c1cc(C2CCCN2c2cc(F)cc(F)c2)c2nc(N3CCOCC3)cnc2c1` (racemic): the Kd in assay [2] was above 30200 nM. The IC50 amounted to 4 nM in assay [3] and 1.35 nM in assay [4].
